Active and inactive are the calls of the source.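 How the source made its calls: active means compounds raising the signal whose fitted half-maximal concentration is at or below their top tested dose (cut at about 25 µM in these data); inconclusive means flat fit at 30 to 70% activity, or a poor fit; inactive means the rest.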

This test concerns INS-1E rat beta cells, no cytokines, CellTiter-Glo ATP, 48 h. Description: ATP level change in INS-1E without cytokines, dose response, counter-screen for beta-cell apoptosis protection project, INS-1E rat cells, ATP luminescence, cherry pick (AID 463229). Background: The purpose of a counterscreen is to sort out artefacts and off-target activity.
The term AC50 denotes the concentration giving half of the maximal activity seen. As to `Cc1[nH]c2c(ccc3ccccc32)c1C1C(CCN)C1(C)C` (configuration not stated), the AC50 is 14.6 µM.
On to `CC(NC(=S)NC1CCCCC1)c1ccc(C(C)(C)C)cc1` (configuration not stated), for which the AC50 was 11.2 µM.
In the case of `Cc1nc2ccc(NC(=O)c3cc(S(=O)(=O)N(C)c4ccccc4)ccc3Cl)cc2s1`, the half-maximal activity concentration (AC50) was 2.8 µM.
Turning to `Cc1cccc(Nc2nc(N)c([N+](=O)[O-])c(N3CC(C)CC(C)C3)n2)c1` (configuration not stated), the AC50 is 14.8 µM.
Regarding `CCOC(=O)N1CCN(S(=O)(=O)c2ccc(C(=O)NNc3nc4ccc(Cl)cc4s3)cc2)CC1`, the AC50 is 5.43 µM.
Then `NS(=O)(=O)c1ccc(N/N=C/c2cn(-c3ccccc3)nc2-c2cccs2)c([N+](=O)[O-])c1`, with 5.61 µM.
Then `N#CC(C#N)=C1C=CC=CN1/C(=C\c1ccco1)C(=O)c1ccc(Br)cc1`, with 8.57 µM; and `Fc1ccc(-c2cc(-c3nnc4n3CCCCC4)c3ccccc3n2)cc1`, with 8.53 µM.
As for `FC(F)(F)c1cccc(-c2nc3nc(Cl)c(Cl)nc3[nH]2)c1`, the figure is 3.13 µM; as for `CN1/C(=C\C(=S)NC(=O)c2cccc(Br)c2)C(C)(C)c2ccccc21`, 3.93 µM; as for `CCN1CCN(C2=C(NS(=O)(=O)c3ccccc3)C(=O)c3ccccc3C2=O)CC1`, 20.3 µM.
`Cc1nc(N2CCN(C(=O)c3ccco3)CC2)c2c3c(sc2n1)CC(C)CC3` (configuration not stated): the half-maximal activity concentration (AC50) is 5.51 µM.
As for `COC(=O)C1=C(C)N(Cc2ccccc2)C(=NCc2ccccc2)N[C@H]1c1cccc(C(F)(F)F)c1`, the half-maximal activity concentration (AC50) is 14.1 µM.
Take `COc1ccc(O)c(/C=N/NC(=O)c2cccc(N3CCCC3=O)c2)c1`: the AC50 is 14.8 µM.
Turning to `CN(C)CCCN(C(=O)c1ccc(S(=O)(=O)N(C)Cc2ccccc2)cc1)c1nc2cc3c(cc2s1)OCO3`, the AC50 is 15.9 µM.
Consider `O=S(=O)(c1ccc(F)c(F)c1F)N1CCN(c2ncnc3sccc23)CC1`, for which the AC50 was 7.17 µM.
As for `COc1ccc(C(=O)N/N=C(\C)c2ccccn2)cc1OC`, the figure is 2.54 µM.
For the molecule `O=C(NCCc1cn2ccccc2n1)c1cc(COc2ccc3ncccc3c2)on1`, the concentration at half-maximal activity (AC50) was 8.04 µM.
On to `CCOc1cccc(/C=N/NC(=O)c2ccc3c(c2)OCCO3)c1O`, for which the AC50 is 8.21 µM.
As for `CC1=C(C#N)C(C(F)(F)F)(C(F)(F)F)N=C(c2ccco2)N1`, the AC50 is 12.8 µM.
Take `CC(=O)c1cn(CCOc2cc(C)ccc2C)c2ccccc12`: the AC50 was 4.67 µM.
On to `CCOC(=O)c1cnc(-n2nc(C)cc2C)nc1NC1CCCC1`, for which the AC50 is 2.38 µM.
As for `CC1CCC/C=C/C2CC(O)CC2C(O)/C=C/C(=O)O1` (configuration not stated), the figure is 0.759 µM; as for `Cc1nn(C)c(C)c1CN(Cc1nc(CCC(C)C)no1)C(C)C`, 4.22 µM; as for `Cc1ccc(C(=O)Nc2nc(-c3ccccn3)cs2)s1`, 6.66 µM.
Consider `O=[N+]([O-])c1cccnc1N/N=C/c1ccccc1O`, for which the concentration at half-maximal activity (AC50) was 5.45 µM.
As for `O=C(Nc1ccc(-c2noc(-c3cccs3)n2)cc1)c1cccnc1`, the figure is 13 µM; as for `COc1ccc(C(=O)N2CCN(c3ccc([N+](=O)[O-])c(NCCc4ccc(OC)c(OC)c4)c3)CC2)cc1`, 3.46 µM; as for `CCN(CC)S(=O)(=O)c1ccc(Cl)c(C(=O)Nc2ccc(Cl)cc2[N+](=O)[O-])c1`, 7.97 µM.
`C=C(C=O)C[C@@H]1C[C@H](O)C2OC3C[C@]4(C)OC5/C=C\CC6OC7C(CC=CCC6OC5CCCC4OC3CC2O1)OC1CC2OC3CC(=O)OC3C[C@@H](C)C[C@@]2(C)OC1C[C@@H]7C` (some centres not stated): the AC50 was 3.79 µM.
Regarding `CCN1CCN(c2ccc(S(=O)(=O)N3CCCCC3)cc2NC(=O)c2ccc([N+](=O)[O-])s2)CC1`, the AC50 was 6.94 µM.
Take `Oc1c(Br)cc(Br)cc1/C=N/Nc1ccc(Cl)nn1`: the AC50 was 1.21 µM.
`COc1ccc(CNC[C@@H](CCCCN(C)Cc2ccc(OC)cc2)N2C[C@H](c3ccccc3)N(CCc3ccc(Cl)c(Cl)c3)C(=O)C2=O)cc1`: the AC50 is 7.17 µM.
For `CCn1c(=O)c(C(=O)Nc2nc3ccccc3[nH]2)c(O)c2ccccc21`, the half-maximal activity concentration (AC50) was 6.03 µM.
As to `CCCCCCCCSc1nnc(CSc2nc3nc(C)cc(C)n3n2)o1`, the half-maximal activity concentration (AC50) is 26.1 µM.
On to `CCN(CC)c1ccc(/C=N/NC(=S)NCc2ccccc2)c(O)c1`, for which the half-maximal activity concentration (AC50) is 12.3 µM.
For `Cc1ccc(F)c([C@H]2C3C=CCC(c4ccccc4)C3C(=O)N2Cc2ccccc2)c1` (some centres not stated), the AC50 was 14.4 µM.
As for `Cc1cc(C)n(-c2nc3ccccc3c(=O)n2OCC#N)n1`, the figure is 12.4 µM; as for `Cc1cc(C)cc(Oc2cc(NC(=O)c3cn(C)nc3C)cc([N+](=O)[O-])c2)c1`, 2.58 µM.
`COc1cccc(/C=N/NC(=O)c2cc3c(OC)ccc(OC)c3[nH]2)c1O`: the concentration at half-maximal activity (AC50) was 10.7 µM.
In the case of `CCCc1cc(=O)n2[nH]cc(-c3ccc(Cl)cc3)c2n1`, the AC50 is 11.9 µM.
As to `CC(=O)/C=C1\N(C)c2ccc(C)cc2C1(C)C`, the AC50 is 7.3 µM.
Then `Cc1ccn2c(Nc3ccccc3C)c(-c3ccccn3)nc2c1`, with 9.55 µM; and `Cc1ccc(NS(=O)(=O)c2cc([N+](=O)[O-])ccc2NNC(=S)Nc2cc(C)ccc2C)c(C)c1`, with 4.65 µM; and `CCOC(=O)C1=C(c2ccc(OC)cc2)C(=O)c2ccccc2C1=O`, with 3.83 µM.
Consider `CCOc1ccc(S(=O)(=O)N(C)c2ccc(OCC(=O)Nc3nc4ccccc4s3)cc2)cc1`, for which the AC50 is 7.9 µM.
With `CC(=O)C1=NN(c2ccccc2)C(c2cccs2)N1c1ccc(N(C)C)cc1` (configuration not stated), the concentration at half-maximal activity (AC50) is 3.56 µM.
As to `CCCCn1c(NS(=O)(=O)c2ccccc2)c(S(=O)(=O)c2ccc(C)cc2)c2nc3ccccc3nc21`, the AC50 is 22.1 µM.
`CCCC(=O)NC(c1ccc2c(c1)OCO2)c1cc(Cl)c2cccnc2c1O` (configuration not stated): the AC50 was 4.39 µM.
Turning to `CCOC(=O)c1[nH]cnc1N=Nc1c(O)ccc2ccccc12`, the half-maximal activity concentration (AC50) is 2.28 µM.
Then `N#Cc1ccc(-c2ccc(Cl)cc2)nc1SCC(=O)c1cccc(Cl)c1`, with 6 µM; and `COc1ccc(C(=O)NN/C(C)=C/C(=O)C(F)(F)C(F)(F)C(F)(F)F)cc1`, with > 26 µM (inactive).
Consider `CN(C)c1cc[n+](CC(=O)Nc2ccc(Oc3ccccc3)cc2)cc1`, for which the AC50 is 2.36 µM.
As for `Oc1ccc(CNc2ccccc2)c2cccnc12`, the half-maximal activity concentration (AC50) was 22.8 µM.
As to `Cc1ccc2nc(-c3ccccn3)c(Nc3ccccc3C)n2c1`, the half-maximal activity concentration (AC50) was 9.99 µM.
As for `COc1cc(NC(=O)c2ccccc2NS(=O)(=O)c2ccc(Cl)s2)cc(OC)c1`, the figure is 6.97 µM.
For the molecule `O=C(CCC1CCCC1)Nc1ccc(C(=O)NCc2cccnc2)cc1`, the AC50 was less than 0.195 µM.
As for `Cc1nc(Nc2cnc(/C=C/c3cc(C(=O)Nc4cccc(C(F)(F)F)c4)ccc3C)cn2)cc(N2CCNCC2)n1`, the AC50 is 12.3 µM.
Then `COC1=C(Nc2ccccc2OC)C(=O)c2ccccc2C1=O`, with > 26 µM (inactive); and `CC(C)(C)OC(=O)NCc1ccc(NC(=O)c2nc[nH]c2C(=O)NCCNC(=O)c2[nH]cnc2C(=O)Nc2ccc(CNC(=O)OC(C)(C)C)cc2)cc1`, with 10.8 µM.
For the molecule `NC(=S)N/N=C/c1ccc(C23CC4CC(CC(C4)C2)C3)cc1`, the AC50 was 12.2 µM.
Turning to `CCCOc1ccc(Cc2c(Cl)nc(SC)nc2NC)cc1`, the AC50 was 6.05 µM.
`O=C(c1cc(COc2cccc3cnccc23)on1)N1CCCC(CCCO)C1` (configuration not stated): the AC50 was 2.04 µM.
`CC(C)CNC(=O)COC(=O)c1c2c(nc3ccccc13)/C(=C/c1cccs1)CC2`: the half-maximal activity concentration (AC50) was 1.5 µM.
As to `COc1ccc(C(NC(=O)C(C)C)c2ccc3cccnc3c2O)cc1` (configuration not stated), the AC50 was 2.84 µM.
For the molecule `CCN1/C(=C/C=C/c2sc3ccccc3[n+]2CC)Sc2ccccc21`, the AC50 is less than 0.195 µM.
As for `CCOc1ccccc1NC(=O)c1nc(S(=O)(=O)Cc2cccc(C)c2)ncc1Cl`, the AC50 was 7.91 µM.
Consider `COc1ccc2c(C(=O)NCc3ccc4c(c3)OCO4)c(-c3ccc(S(C)(=O)=O)cc3)sc2c1`, for which the half-maximal activity concentration (AC50) was 9.16 µM.
For the molecule `CCCOC(=O)c1ccc(-[n+]2c(-c3ccccc3)cc(-c3ccccc3)cc2-c2ccccc2)cc1`, the concentration at half-maximal activity (AC50) was 2.15 µM.
`COc1ccc(-c2nn(-c3ccccc3)cc2/C=N/N2C(=O)CSC2=S)cc1`: the AC50 is 6.57 µM.
Then `Cc1ccc(C2=CC(c3ccc(N(C)C)cc3)n3nnnc3N2)cc1` (configuration not stated), with 6.72 µM; and `COc1cccc(/C=N/Nc2snc(SC)c2C#N)c1O`, with 5.12 µM; and `CCOC(=O)c1ccc(-[n+]2c(-c3ccccc3)cc(-c3ccccc3)cc2-c2ccccc2)cc1`, with 2.27 µM.
As for `CC(C)(C)c1cc[n+](C2=C([O-])c3ccccc3C(=O)/C2=N\S(=O)(=O)c2cccs2)cc1`, the figure is 7.44 µM; as for `COc1cccc(/C=N/Nc2ncc(C(F)(F)F)cc2Cl)c1O`, 4.26 µM.
As to `CC[n+]1ccc(/C=C/c2c[nH]c3ccccc23)cc1`, the AC50 is 5.85 µM.
Then `N#Cc1c([N+](=O)[O-])cc([N+](=O)[O-])cc1S(=O)(=O)Cc1ccccc1`, with 4.91 µM.
As for `COc1ccc(C(=O)NCC(=O)N/N=C/c2ccc([N+](=O)[O-])s2)cc1OC`, the figure is 13.5 µM; as for `CCn1c(=NC(=O)CCS(=O)(=O)c2ccccc2)sc2cccc(OC)c21`, 7.2 µM; as for `CC(C)(C)c1cnnn1-c1ccc(/C=N/Nc2ccc([N+](=O)[O-])cc2)cc1`, 7.77 µM.
For the molecule `CCCCC(=O)NC(c1ccc(N(CC)CC)cc1)c1ccc2cccnc2c1O` (configuration not stated), the AC50 is 1.37 µM.
In the case of `COc1ccc(N/N=C/c2c(C(=O)O)ccc3ccccc23)cc1`, the AC50 is 4.35 µM.
For `COc1cccc(C(NC(C)=O)c2ccc3cccnc3c2O)c1` (configuration not stated), the AC50 is 3.78 µM.
Consider `CC1=CC(=O)C(C(C)C)=C/C1=N/OS(=O)(=O)c1ccccc1`, for which the half-maximal activity concentration (AC50) is 1.42 µM.
As for `COc1ccc(C(=O)c2c(C(F)(F)F)oc3c2C(=O)c2ccccc2C3=O)cc1`, the figure is 6.74 µM; as for `Cc1nc2c(=O)n(C)c(=O)nc-2n(C)n1`, 2.06 µM.
Consider `N#CC1=C(N)Oc2c(ccc3cccnc23)C1c1ccccc1` (configuration not stated), for which the AC50 is 19.3 µM.
On to `Cc1ccc(C(=O)NC2CCCc3c2cnn3-c2ccc(F)cc2F)cn1` (configuration not stated), for which the concentration at half-maximal activity (AC50) was 7.07 µM.
For the molecule `CCS(=O)(=O)c1ccc(OC)c(N=Nc2ccc(O)c3ncccc23)c1`, the half-maximal activity concentration (AC50) is 9.84 µM.
Then `Cc1ccc(NC2=C/C(=N\S(=O)(=O)c3cccs3)c3ccccc3C2=O)c(C)c1`, with 1.88 µM; and `Cc1ccccc1-c1cc(C(=O)Nc2sc(C)c(C)c2C(N)=O)c2ccccc2n1`, with 6.8 µM.
As to `Oc1ccc(N=Nc2ccc3c(c2)OCCO3)c2ncccc12`, the concentration at half-maximal activity (AC50) was 3.75 µM.

The values are drawn from PubChem BioAssay AID463229 (Broad Institute, 2010).
